The values that follow come from US8455550B2, “Derivatives of aminocyclobutane or aminocyclobutene, their method of preparation and their use as medical products” (Pierre Fabre Medicament, priority 2009, dated 2013).

The test system of experiment [1] is Male Sprague Dawley rats. Kind of experiment: Formaldehyde test, analgesic activity, late phase. It is filed as in vivo, rat. The following applies: for Paw licking Score observed at 40 mg/Kg / Paw lifting Score observed at 40 mg/Kg: 40 mg/Kg ip 15 min before formaldehyde 2.5%, late phase 22.5-27.5 min, maximum score 10. The method, then:
The analgesic activity of the formula (1) compounds and of milnacipran, chosen as reference compound, was determined using a conventional pain module in which formaldehyde is injected to cause a painful sensation in animals (Eur. J. Pharmacol. 2001, 421, 109). The rats (Male Sprague Dawley rats (ICO: OFA SD [IOPS], Iffa Credo, France) are placed in observation boxes in Plexiglas above an angled mirror to facilitate observation of their hind paws. After thirty minutes habituation, the animals are given an injection of formaldehyde diluted to 2.5% on the plantar surface of the right hind paw. The injection of formaldehyde produces behavioural responses which occur in two phases: • an early phase, 0 to 5 min after injection of formaldehyde, corresponding to stimulation of the receptors specialized in the transmission of nociceptive stimuli. • a late phase which occurs between 20 and 30 min after injection. This phase corresponds to the stimulation of receptors by inflammatory mediators and/or to hyperexcitability of the dorsal horn induced during the first phase. This later phase therefore involves central sensitization and causes pain more representative of neuropathic pain compared with the pain which occurs during the first phase. On this account, only the results obtained in this later phase are taken into consideration in the present application. To study the compounds of the invention, we selected two expressions of painful behaviour (paw licking, lifting of injected paw) and chose as observation period the period which corresponds to the late phase (i.e. 22.5-27.5 min). During this 5 min phase, the animals are observed every 30 s and the following behaviours are recorded: licking or non-licking of the injected hind paw and lifting or not of the injected hind paw. Ten observations give a maximum score of 10 for each parameter. The products of the invention are given via intra-peritoneal route 15 min before the injection of formaldehyde.

In the next experiment the test system is adult rat. Kind of experiment: Ultrasonic vocalizations (USV) test, antistress/anxiolytic activity. The following applies: 22 kHz vocalizations. It counts as in vivo. The method, then:
Antistress/anxiolytic activity was determined on a conventional model using ultrasonic vocalizations (USVs) emitted by an adult rat when subjected to stress (Eur. J. Pharmacol. 2003, 463, 133).
The experiments were conducted in standard operative cages (250×320×250 mm) insulated from noise and light. The floor of the cages is covered with a grid in stainless steel and connected to an electric shock generator delivering a fixed intensity of 0.4 mA. The device is provided on one of its walls with a light source (2 lux). The ULTRAVOX system (Noldus, Wageningen, Pays Bas) is used to record ultrasonic vocalizations at a frequency defined by an ultrasound detector, an audio-filter box and acquisition software. For this experiment, the capture frequency was set at 22 kHz. The software allows the recording of all vocalizations of 22 kHz lasting a time of more 100 ms emitted by the animals. The test starts with a habituation session of 11 min 25 s, during which the animals are individually placed in the operative device without being subjected to conditioning (neither light nor electric shock).
During a second phase, the animals are subjected to a conditioning phase of 3 sessions given over 3 consecutive days. […]

Experiment [2] deals with Male Sprague Dawley rats. Kind of experiment: Forced swimming test, antidepressant activity. It is filed as in vivo, rat. The following applies: 40 mg/Kg ip, single administration 30 min before test; 5 min observation; FIG. 1. The method, then: The antidepressant activity of the compounds of the invention was evidenced by the forced swimming test in rats (Eur. J. Pharmacol. 1978, 47, 379). This model is widely used since it is predictive of antidepressant activity in man.
The rats (Male Sprague Dawley rats (ICO: OFA SD [IOPS], Iffa Credo, France), are placed in a cylinder (height 45 cm and diameter 20 cm) filled with water at 25° C.±0.5 up to a height of 17 cm. This height allows the rats to swim or float without their paws touching the bottom of the cylinder. 24 h before the test day, the rats are placed in the cylinder for 15 min, after which time they no longer attempt to escape and remain immobile. On the test day, the animals are put back in the cylinder and the duration of immobility of the animal is measured and monitored using audiovisual recording for 5 min. The products of the invention are administered via ip route 30 min before the test. A rat is considered to be immobile when it allows itself to float and only makes small movements to remain on the surface.

Regarding `CCN(CC)C(=O)[C@@]1(c2ccccc2)C[C@H]1CN` (racemic) [milnacipran, cis-(±)-N,N-diethyl-(1-phenyl-2-aminomethyl)-cyclopropanecarboxamide, reference compound], in the experiment with Male Sprague Dawley rats [1], the “Paw licking Score observed at 40 mg/Kg” value was 2.0 ± 0.8 and the “Paw lifting Score observed at 40 mg/Kg” value is reported as 6.3 ± 1.4. The “Duration of USVs minimum significant dose (MSD)” value with adult rat was determined as 10 mg/kg. Moreover, the “Duration of immobility (effect in words)” value in the experiment on Male Sprague Dawley rats [2] is reported as “no effect”.

In the case of “(±)-cis-N,N-diethyl (1-phenyl-2-aminomethyl)-cyclobutanecarboxamide [Compound 1a]”, in the experiment on Male Sprague Dawley rats [1], the “Paw licking Score observed at 40 mg/Kg” value is 1.0 ± 0.4 and the “Paw lifting Score observed at 40 mg/Kg” value stood at 3.7 ± 1.1. Besides, the “Paw lifting and paw licking in late phase (effect in words)” value with Male Sprague Dawley rats [1] (ip, late phase of formaldehyde test) is “significantly reduces both paw lifting and paw licking”. Further, the “Duration of USVs minimum significant dose (MSD)” value in the experiment with adult rat was 10 mg/kg. Also, the “Duration of immobility (effect in words)” value in the experiment on Male Sprague Dawley rats [2] was “significantly decreasing the duration of immobility”.
